In patent US9066516B2, “Uses of thaxtomin and thaxtomin compositions as herbicides” (priority 2008, dated 2015):

Tests used:
Format in all cases: in vivo
[1] = tested on: corn (Zea mays var. Early Sunglow); assay: Pot study, phytotoxicity on corn (Example 2); conditions: 0.5 and 1.0 mg/mL, 7, 14 and 21 days after treatment
Procedure: A pot study is conducted to test the phytotoxicity of thaxtomin A on corn (Zea mays var. Early Sunglow) and wheat (Triticum aestivum var. PR1404). To confirm the activity on broadleaf weeds, pigweed (Amaranthus sp.) is planted in the same pot with either three corn or five wheat seeds, and sprayed simultaneously with the cereal test plants. The less than 3-inch tall plants grown under growth lights (12-h light/12-h dark) at 28° C. are sprayed with thaxtomin A solutions derived from a liquid culture of S. acidiscabies containing 0.5, and 1.0 mg thaxtomin A per mL of solvent (4% ethanol and 0.2% non-ionic surfactant). A solution of 4% ethanol +0.2% non-ionic surfactant without thaxtomin A is used as a control treatment. Each treatment is conducted in three replicates. Treated plants are kept at 28° C. under growth lights and observed at three time points—7, 14 and 21 days after treatment—for visual symptoms of phytotoxicity on corn and wheat and % control of pigweed.

[2] = tested on: small-flower umbrella sedge; assay: Field study, 1-sq foot plots (Example 5); conditions: 14 days after treatment
Procedure: (§1) The combined effect of thaxtomin A and two commercial herbicides (Bipyribac-sodium formulated as Regiment and Lemongrass oil formulated as GreenMatch EX) on small-flower umbrella sedge and watergrass is tested in a field study using small (1-sq foot) plots. All single product treatments and tank mix combinations were sprayed at 57 gal per acre. Means in each column marked with the same letter in Table 2 are not statistically different from each other at p<0.05

watergrass = assay: Field study, 1-sq foot plots (Example 5); conditions: 14 days after treatment
Procedure: as §1

redstem; Ammania spp. = assay: Greenhouse study thaxtomin A / sarmentine (Example 9); conditions: 25 days after treatment
Procedure: (§2) A strain of S. acidiscabies was grown in oat bran broth for 5 days (25° C., 200 rpm). The whole cell broth was extracted using XAD resin, and the dried crude extract was resuspended in 4% ethanol and 0.2% non-ionic surfactant at a concentration of 10 mg/mL. The diluted extracts containing 0.2 and 0.4 mg thaxtomin A per mL were tested on three weed species (redstem; Ammania spp., smallflower umbrella sedge; Cyperus difformis and sprangletop: Leptochloa uninervia). Other treatments included sarmentine at 2.5 and 5.0 mg/mL, and a combination treatment containing 0.2 mg thaxtomin A and 2.5 mg sarmentine per mL. Each treatment was applied in three replicates. Treated plants were kept in a greenhouse under 12 h light/12 h dark conditions.

[3] = tested on: smallflower umbrella sedge; Cyperus difformis; assay: as above; conditions: Thaxtomin A 0.2 mg/mL; 25 days after treatment
Procedure: as §2

[4] = tested on: sprangletop: Leptochloa uninervia; assay: as above; conditions: Thaxtomin A 0.2 mg/mL; 25 days after treatment
Procedure: as §2

Bluegrass (Poa annua) [5] = assay: Pre-emergence test of MBI-005, lab & field (Example 12); conditions: pre-emergent; also: ranges in brackets are in %
Procedure: (§3) To further describe the spectrum of pre-emergence activity, tests were conducted in laboratory and field conditions. In laboratory testing, 35 seeds were placed on a ring of blotter paper inside a 3 cm petri dish and supplied with 4 ml of MBI-005 (≦0.1 mg MBI-005/ml). Water was used as a negative control and oryzalin applied as a positive control. Petri dishes were randomly placed in a growth room at 25° C. and 50% RH. Treatments were replicated three times and germinated seeds were counted 7 and 14 days after application; water was added as necessary to maintain moisture levels inside each petri dish.
(§4) In field testing, field soil containing weed seeds were treated with 38.2 L MBI-005/ha at a spray volume of 280 L/ha using a CO2 sprayer with flat fan nozzles. Treatments, including water as the negative control and Gallery as the positive control, were replicated four times and applied twice at a four week interval. Treatments were evaluated visually as % cover and above-ground fresh weights per container were taken.

[6] = tested on: Crabgrass (Digitaria sanguinalis); assay: as above; conditions: pre-emergent; also: ranges in brackets are in %
Procedure: as §3, §4

[7] = tested on: Arrowhead (Sagittaria montevidensis); assay: Post-emergence test of MBI-005, field (Example 13)
Procedure: (§5) In field testing, field soil containing weeds at the 1-5 leaf stage were treated with 38.2 L MBI-005/ha at a spray volume of 374 L/ha. Treatments, including water as the negative control and WeedBGon or Preen Broadleaf as the positive control, were replicated four times and applied twice at a four week interval. The positive control on Late watergrass, Ricefield Bulrush, Smallflower sedge and Arrowhead was an herbicide containing as active ingredient 2,4-D and an organosilicone surfactant was added to MBI-005. Treatments were assessed for % control and % ground cover.

[8] = tested on: Bermuda buttercup (Oxalis pes-caprae); assay: Post-emergence test of MBI-005, field (Example 13)
Procedure: as §5

Bluegrass (Poa annua) [9] = assay: Post-emergence test of MBI-005, field (Example 13)
Procedure: as §5

[10] = tested on: Clover (Trifolium hirtum); assay: Post-emergence test of MBI-005, field (Example 13)
Procedure: as §5

[11] = tested on: Common chickweed (Stellaria media); assay: Post-emergence test of MBI-005, field (Example 13)
Procedure: as §5

[12] = tested on: Common groundsel (Senecio vulgaris); assay: Post-emergence test of MBI-005, field (Example 13)
Procedure: as §5

[13] = tested on: Common yellow oxalis (Oxalis pes-caprae); assay: Post-emergence test of MBI-005, field (Example 13)
Procedure: as §5

Eclipta (Eclipta alba) = assay: Post-emergence test of MBI-005, field (Example 13)
Procedure: as §5

[14] = tested on: Flexuous bittercress (Cardamine flexuosa); assay: Post-emergence test of MBI-005, field (Example 13)
Procedure: as §5

[15] = tested on: Hairy bittercress (Cardamine hirsuta); assay: Post-emergence test of MBI-005, field (Example 13)
Procedure: as §5

[16] = tested on: Hairy galinsoga (Galinsoga ciliata); assay: Post-emergence test of MBI-005, field (Example 13)
Procedure: as §5

[17] = tested on: Late watergrass (Echinochloa phyllopogon); assay: Post-emergence test of MBI-005, field (Example 13)
Procedure: as §5

[18] = tested on: Ricefield bullrush (Scirpus mucronatus); assay: Post-emergence test of MBI-005, field (Example 13)
Procedure: as §5

[19] = tested on: Shepherd's purse (Capsella bursa-pastoris); assay: Post-emergence test of MBI-005, field (Example 13)
Procedure: as §5

[20] = tested on: Velvetleaf (Abutilon theophrasti); assay: Post-emergence test of MBI-005, field (Example 13)
Procedure: as §5

barnyard grass = assay: Post-emergent MBI-005 + Propanil on barnyard grass (Example 20); conditions: 14 days
Procedure: Negative controls were sprayed with water. Pots were randomly placed in a growth room at 25° C. and 50% RH, and watered as necessary. Treatments were replicated three times and evaluated at 7 and 14 days for visual % damage, with 0% indicating no damage and 100% indicating plant death.
Synergy was calculated as the ratio of observed (E) to expected (E/Ee) percent control using Colby's formula.

## CN1C(=O)[C@](O)(Cc2cccc(O)c2)N(C)C(=O)[C@@H]1Cc1c[nH]c2cccc([N+](=O)[O-])c12 [thaxtomin A]
[1]
  symptoms of phytotoxicity: no symptoms of phytotoxicity are observed
[2]; Thaxtomin 0.25 mg/mL
  Sedge control (%): 95a %
[2]; Thaxtomin 0.5 mg/mL
  Sedge control (%): 100a %
watergrass; Thaxtomin 0.25 mg/mL
  Watergrass control (%): 5d %
watergrass; Thaxtomin 0.5 mg/mL
  Watergrass control (%): 5d %
redstem; Ammania spp.; Thaxtomin A 0.2 mg/mL
  Control of redstem (%): 5.0b %
redstem; Ammania spp.; Thaxtomin A 0.4 mg/mL, *stunted
  Control of redstem (%): 11.7c* %
[3]
  Control of sedge (%): 48.3b %
[4]
  Control of sprangletop (%): 8.3ab %
Bluegrass (Poa annua) [5]
  Rating at 0.1 mg/ml (Reduction of Germination): ++++ (95-100)
[6]
  Rating at 0.1 mg/ml (Reduction of Germination): ++++ (95-100)
[7]
  Rating at 1 mg/ml (Post-Emergence % control): ++++ (91-100)
[8]
  Rating at 1 mg/ml (Post-Emergence % control): ++++ (91-100)
Bluegrass (Poa annua) [9]
  Rating at 1 mg/ml (Post-Emergence % control): ++ (51-80)
[10]
  Rating at 1 mg/ml (Post-Emergence % control): ++ (51-80)
[11]
  Rating at 1 mg/ml (Post-Emergence % control): ++ (51-80)
[12]
  Rating at 1 mg/ml (Post-Emergence % control): ++++ (91-100)
[13]
  Rating at 1 mg/ml (Post-Emergence % control): ++++ (91-100)
Eclipta (Eclipta alba)
  Rating at 1 mg/ml (Post-Emergence % control): ++ (51-80)
[14]
  Rating at 1 mg/ml (Post-Emergence % control): ++ (51-80)
[15]
  Rating at 1 mg/ml (Post-Emergence % control): ++ (51-80)
[16]
  Rating at 1 mg/ml (Post-Emergence % control): +++ (81-90)
[17]
  Rating at 1 mg/ml (Post-Emergence % control): +++ (81-90)
[18]
  Rating at 1 mg/ml (Post-Emergence % control): ++++ (91-100)
[19]
  Rating at 1 mg/ml (Post-Emergence % control): ++++ (91-100)
[20]
  Rating at 1 mg/ml (Post-Emergence % control): ++ (51-80)
Barnyard grass; 12.5% MBI-005 (of label rate)
  Observed Average % Efficacy (E): 10.0%
Barnyard grass; 25% MBI-005 (of label rate)
  Observed Average % Efficacy (E): 20.0%
